Test results reported in US20220119355A1, “SATURATED-RING-FUSED DIHYDROPYRIMIDINONE OR DIHYDROTRIAZINONE COMPOUNDS AND PHARMACEUTICAL USE THEREOF” (Japan Tobacco Inc., priority 2018, published 2022).

Key:
[1] = target: T1, mouse RORγ (Mus musculus, UniProt P51450); assay: In-vitro reporter gene assay for inhibitory activity against RORγ transcription, Test Method B (pFA/mRORγ LBD / pG5-Luc in CHO cells); type: cell-based; conditions: luciferase reporter, CHO cells, 2 days
T1 construct: from Ile251 to Lys516 for mouse RORγ; expressed in transfected cells; host or cells: CHO cells (transient co-transfection with pG5-Luc)
T1 sequence (P51450 251-516): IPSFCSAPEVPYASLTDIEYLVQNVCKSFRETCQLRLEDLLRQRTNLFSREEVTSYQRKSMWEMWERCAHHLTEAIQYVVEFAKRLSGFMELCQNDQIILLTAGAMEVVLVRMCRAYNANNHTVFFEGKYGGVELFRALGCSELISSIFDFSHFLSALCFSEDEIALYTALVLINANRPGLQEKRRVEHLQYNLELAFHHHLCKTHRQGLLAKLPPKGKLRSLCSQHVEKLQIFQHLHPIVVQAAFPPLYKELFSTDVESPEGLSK
Procedure: (§1) In-Vitro Assay for Inhibitory Activity Against RORγ Transcription
(§2) Inhibitory activity against RORγ transcription was assessed for test compounds by either of the following Test Method A or B of reporter gene assay.
(§3) cDNAs encoding human and mouse RORγ ligand binding domains (LBD) were obtained based on the sequences of human RORγ (Genbank registered number NM_005060.3) and mouse RORγ (Genbank registered number NM_011281.2) (LBD sequences: from Ser253 to Lys518 for human RORγ; from Ile251 to Lys516 for mouse RORγ).
(§4) LBD cDNAs of human and mouse RORγ were inserted into pFA-CMV vector (Agilent Technologies, Inc.), which expresses GAL4-DNA binding domain fusion protein. The resulting plasmids are hereinafter referred to as pFA/hRORγ plasmid and pFA/mRORγ plasmid, respectively.
(§5) pFA/hRORγ plasmid or pFA/mRORγ plasmid was transiently co-transfected into Chinese hamster ovary cells (CHO cells) with pG5-Luc (Promega), reporter plasmid expressing firefly luciferase in a GAL4-dependent manner.
(§6) TransIT (Registered trademark) CHO Transfection Kit (Mirus) was used to co-transfect CHO cells with the plasmids. One day prior to the assay, CHO cells were suspended in HAM F-12 Nutrient medium containing 10% (v/v) fetal bovine serum and seeded at 5.5×10^6 cells per 225 cm^2 cell culture flask each. 72 μL of TransIT (Registered trademark) CHO reagent was added into a 2 mL tube containing 1.55 mL of Opti-MEM, and then mixed and incubated at room temperature for 10 minutes. 50.4 μL of a plasmid solution containing 300 ng of pFA/hRORγ plasmid, 12000 ng of pG5-Luc plasmid, and 11700 ng of pcDNA3.1 plasmid were added into the tube and mixed gently. In the case of mouse assay, a plasmid solution containing 300 ng of pFA/mRORγ plasmid, 12000 ng of pG5-Luc plasmid, and 11700 ng of pcDNA3.1 plasmid was added, instead. The mixture was incubated at room temperature for 10 minutes. 12 μL each of CHO Mojo Reagent were then added into each tube and mixed gently. The mixture was incubated at room temperature for 10 minutes. The resulting transfection reagent was applied to the cell culture. After incubation at 37° C., 5% CO2 for 4 hours, the plasmid-transfected CHO cells were harvested by trypsin treatment. The collected cells were resuspended in culture medium and plated into a 384-well-white plate at 8,000 cells/35 μL/well. The plate was let stand at room temperature for 1 hour and then further incubated at 37° C., 5% CO2 for 3 hours. A test compound was dissolved in dimethyl sulfoxide (DMSO) to obtain a concentration of 10 mM. Each solution was serially diluted with DMSO and further diluted with culture medium just before use. The test compound solutions were added to the cells in the plate at 6 different concentrations. The final concentration of DMSO was 0.2% (v/v). After the addition of test compound, the cells were incubated at 37° C., 5% CO2 for 2 days.
(§7) RORγ transcriptional activity was detected as the intracellular luciferase activity using SteadyLite HTS Reporter Gene Assay System (Perkin Elmer). SteadyLite Reagent was diluted 2.5-fold with Extension buffer (10 mM Tricine, 0.2% (w/v) bovine serum albumin, 0.02% (v/v) Tween-20) to obtain a luciferase substrate solution. Two days after the addition of test compound, 40 μL each of the luciferase substrate solution was added into the 384-well-plate. After the incubation at room temperature for 10 minutes, luminescence of each well was measured with a microplate reader. The luciferase activity derived from the luminescence count in a vehicle-control well treated with 0.2% DMSO alone was defined as 100%, and the luciferase activity after treatment of the test compound was calculated as a percentage, %-of-control, based on the value of the vehicle-control. An EC50 value of the test compound was calculated by curve fitting. The luminescence counts at the concentration of test compound where cytotoxicity was observed were excluded from data analysis. […]

[2] = target: T2, human RORγ (Homo sapiens, UniProt P51449); assay: In-vitro reporter gene assay for inhibitory activity against RORγ transcription, Test Method B (pFA/hRORγ LBD / pG5-Luc in CHO cells); type: cell-based; conditions: luciferase reporter, CHO cells, 2 days
T2 construct: from Ser253 to Lys518 for human RORγ; expressed in transfected cells; host or cells: CHO cells (transient co-transfection with pG5-Luc)
T2 sequence (P51449 253-518): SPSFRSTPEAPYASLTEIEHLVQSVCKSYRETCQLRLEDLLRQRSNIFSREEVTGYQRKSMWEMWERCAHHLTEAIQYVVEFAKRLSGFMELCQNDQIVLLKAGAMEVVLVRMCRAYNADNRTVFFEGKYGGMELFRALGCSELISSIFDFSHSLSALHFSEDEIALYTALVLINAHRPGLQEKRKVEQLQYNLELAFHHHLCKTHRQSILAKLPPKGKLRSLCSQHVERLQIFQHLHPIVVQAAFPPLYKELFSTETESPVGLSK
Procedure: as §1, §2, §3, §4, §5, §6, §7

[3] = Non Patent Literature 33; cited from earlier work

Row | Structure (SMILES) | EC50 [1] | EC50 [2] | bone loss in experimental periodontitis model [3]
1 | C[C@H]1CCC2(c3ccc(C4C(C(C)(C)C)C4(F)F)c(Cl)c3)NC(=O)N(C34CCC(C(=O)O)(C3)C4)C=C2[C@@H]1C (single isomer, unassigned) [Example 115] | 0.049 µM | 0.031 µM | 
2 | C[C@H]1CCC2(c3ccc(C4C(C(C)(C)C)C4(F)F)c(Cl)c3)NC(=O)N(C34CCC(C(=O)O)(C3)C4)C=C2[C@@H]1C (single isomer, unassigned) [Example 116] | 0.101 µM | 0.044 µM | 
3 | CC1C2=CN(C34CCC(C(=O)O)(C3)C4)C(=O)N[C@@]2(c2ccc(CCC(C)(C)C)c(Cl)c2)COC1(C)C (single isomer, unassigned) [Example 119] | > 10 µM | > 10 µM | 
4 | CC1C2=CN(C34CCC(C(=O)O)(C3)C4)C(=O)N[C@]2(c2ccc(CCC(C)(C)C)c(Cl)c2)COC1(C)C (single isomer, unassigned) [Example 120] | 0.02 µM | 0.013 µM | 
5 | CCS(=O)(=O)c1ccc(CC(=O)Nc2cc(Cl)c(-c3ccccc3OC(F)(F)F)c(Cl)c2)cc1 [GSK805] |  |  | diminished bone loss

More lines, main results first:

Row | EC50 [1] | EC50 [2] | Structure (SMILES) | bone loss in experimental periodontitis model [3]
6 | 5.3 µM | 4.68 µM | CC1C2=CN(C34CC(C(=O)O)(C3)C4)C(=O)N[C@@]2(c2ccc(CCC(C)(C)C)c(Cl)c2)CCC1(C)C (single isomer, unassigned) [Example 117] | 
7 | 0.082 µM | 0.033 µM | CC1C2=CN(C34CC(C(=O)O)(C3)C4)C(=O)N[C@]2(c2ccc(CCC(C)(C)C)c(Cl)c2)CCC1(C)C (single isomer, unassigned) [Example 118] | 
8 | 0.04 µM | 0.035 µM | CC1C2=CN(C34CCC(C(=O)O)(C3)C4)C(=O)N[C@]2(c2ccc(CCC(C)(C)C)c(Cl)c2)COC1(C)C (single isomer, unassigned) [Example 121] | 
